# Test results published in patent publication US10583102B2, “Targeting liver nuclear receptors as a treatment for wilson disease” (THE JOHNS HOPKINS UNIVERSITY, priority 2014, dated 2020).
# “Also recorded” adds a separate entry of the source.
# Legend:
# [1] = Animal and liver weights during/after T0901317 treatment in chow; type: in vivo, mice; conditions: for body weight: 50 mg/kg/day thrice weekly in chow, 8 weeks
# Description: (§1) ATP7b knockout (ATP7b^−/−) and heterozygote (ATP7b^+/−) mice were generated as previously prescribed (Buiakova et al., 8(9) HUM. MOL. GENETICS 1665-71 (1999). T0901317 (Cayman Chemical, Ann Arbor, Mich.) powder was mixed with Teklad 2018 powdered chow (Harlan, Madison Wis.) and fed to animals aged 6-7 weeks old at a dose of 50 mg/kg/day, thrice weekly. After 8 weeks, animals were sacrificed. The animals were housed at the Johns Hopkins University School of Medicine (JHUSOM) Animal Care Facility and protocols designed according to National Institutes of Health (USA) guidelines. Normal pellet chow was fed to the mice on days they were not receiving the drug. Animals were weighed weekly. At the time of sacrifice, trunk blood and livers were harvested. The Institutional Animal Care and Use Committee (IACUC) of JHUSOM approved the above experimental protocols.
# Atp7b−/− mice [2] = assay: Quantitative RT-PCR of liver mRNA, inflammatory and fibrosis genes; type: in vivo
# Description: as §1
# (§2) Sections of mouse liver were immersed in RNAlater, homogenized, and frozen at −80° C. RNA was isolated with TRIzol via the manufacturer's instructions, then transcribed into cDNA using the SuperScript III first strand synthesis system (Invitrogen). RNA quantity was determined by an ND-1000 spectrophotometer (NanoDrop, Wilmington, Del.). Samples were run in triplicate and performed on a 7900 HT machine (Applied Biosystems) and analyzed with the SDS 2.4.1 software. GAPDH served as the control to which gene of interest expression was normalized.
# (§3) Quantitative RT-PCR for ABC1, HmGCoA1, CYP71a, FASN, LXRα (NR1H3), LXRβ (NR1H2), RXRα (NR2B2), SREBP1, FXR, TIMP1, COL1a, and GAPDHwas performed with sequence-specific primers and probes using TaqMan gene expression assays (Applied Biosystems, Foster City, Calif.).
# Atp7b−/− mice [3] = assay: Serum liver biochemistries (AST, ALT, bilirubin, albumin); type: in vivo; conditions: treated Atp7b−/− mice; p<0.05 vs untreated
# Description: as §1, with “protocols. Animals were fasted overnight before sacrifice. Whole blood was collected from the aorta and vena cava in amber Microtainer tubes (Becton Dickinson, Franklin Lakes, N.J.), and serum was separated after centrifugation at 5000 rpm for 10 minutes. Liver biochemistries and lipid panels were performed in the Molecular and Comparative Pathobiology Core Laboratory of JHUSOM.” for “protocols.”
# Atp7b−/− mice [4] = assay: Liver histology (H&E, inflammation scoring); type: in vivo
# Description: as §1, with “protocols. Sections of mouse liver were covered in OCT and snap frozen in liquid nitrogen. Sections were then cut and stained with hematoxylin and eosin. De-identified samples were analyzed for the presence of inflammation by an expert in veterinary pathology (D.H.). Inflammation was scored as follows: none, 0; mild, 1; moderate, 2; and severe, 3. Severely inflamed livers had karyomegaly, cytomegaly, binucleate hepatocytes, intranuclear vacuoles, multiple nuclei, and inflammatory cell infiltrates.” for “protocols.”
# Atp7b−/− mice [5] = assay: Serum lipid panel; type: in vivo; conditions: drug treated Atp7b−/− mice vs untreated Atp7b−/−
# Description: as §1, with “protocols. Animals were fasted overnight before sacrifice. Whole blood was collected from the aorta and vena cava in amber Microtainer tubes (Becton Dickinson, Franklin Lakes, N.J.), and serum was separated after centrifugation at 5000 rpm for 10 minutes. Liver biochemistries and lipid panels were performed in the Molecular and Comparative Pathobiology Core Laboratory of JHUSOM.” for “protocols.”
# Atp7b−/− mice [6] = assay: Hepatic triglyceride colorimetric assay; type: in vivo
# Description: as §1, with “protocols. The triglyceride colorimetric assay kit (Cayman Chemical, Ann Arbor, Mich.) was used for measuring hepatic triglyceride content using the provided protocol. 120-160 mg of liver tissue was homogenized and samples were assayed in triplicate. Absorbance at 540 nm was detected on an Envision plate reader (Perkin-Elmer). Triglyceride concentrations were calculated using a standard curve, then normalized to the volume of homogenate and the mass of the liver tissue.” for “protocols.”
# Atp7b−/− mice [7] = assay: Hepatic copper measurement by atomic absorption spectroscopy; type: in vivo; conditions: drug-treated Atp7b−/− mice, end of experiment
# Description: as §1, with “protocols. Hepatic copper levels were measured by polarized atomic absorption spectroscopy as previously described. Briefly, 50-100 mg of liver was dissolved in 2 ml of HNO3 at 90° C. Copper levels were determined using a Hitachi Z-8279 spectrophotometer. Samples were compared to freshly prepared standards.” for “protocols.”
# Atp7b−/− mice [8] = assay: Hepatic oxysterol measurement by LC/MS; type: in vivo; conditions: Atp7b knockout mice, data not shown
# Description: as §1, with “protocols. Oxysterols were extracted and measured using the protocol described by McDonald et al. (53(7) J. LIPID RES. 1399-1409 (2012)). […] Quantitation was performed by establishing a linear relationship between measured amounts of the analytical standards combined with the internal standard cocktail. This regression line was applied to the measured peak areas for analytes in the extracted samples to determine measured quantities present in each sample. […]” for “protocols.”
# [9] = test system: LXR/RXR signaling pathway; assay: Quantitative RT-PCR of liver mRNA, genes under control of LXR/RXR signaling pathway; type: in vivo, mice; conditions: for SREBP1 mRNA / FASN mRNA expression: treated vs untreated
# Description: as §1, §2, §3
# [10] = Atp7b−/− mice, treated vs untreated
smiles,measurement,setting,value
"O=S(=O)(c1ccccc1)N(CC(F)(F)F)c1ccc(C(O)(C(F)(F)F)C(F)(F)F)cc1 [T0901317, N-(2,2,2-trifluoroethyl)-N-{4-[2,2,2-trifluoro-1-hydroxy-1-(trifluorometh-yl)ethyl]phenyl}benzene sulfonamide]","liver weight, treated vs untreated","[1]; KO (Atp7b−/−) mice, end of treatment",neither a difference
same,body weight,"[1]; drug-treated HET (Atp7b+/−) mice, p<0.05 vs untreated",26.43 ± 1.35 g
same,body weight,[1]; drug-treated KO (Atp7b−/−) mice,24.03 ± 0.91 g
same,increase in expression of collagen (Col1a mRNA),Atp7b−/− mice [2]; Atp7b−/− mice,completely abolished
same,IL-1β expression,Atp7b−/− mice [2]; [10],significantly reduced
same,TNFα expression,Atp7b−/− mice [2]; [10],significantly reduced
same,iNOs expression,Atp7b−/− mice [2]; [10],significantly reduced
same,"expression of inflammatory genes (TNFα, IL-1β, iNOs)",Atp7b−/− mice [2]; heterozygote animals,no effect
same,serum ALT (mean),Atp7b−/− mice [3],285±115 U/L
same,serum AST (mean),Atp7b−/− mice [3],222±64 U/L
same,serum albumin,Atp7b−/− mice [3],2.93 ± 0.19 g/dL
same,serum total bilirubin,Atp7b−/− mice [3],0.85 ± 0.22 mg/dL
same,effect on liver histology,Atp7b−/− mice [4]; heterozygote mice,no effect
same,treated mice in which pathologic liver histology features disappeared,"Atp7b−/− mice [4]; treated KO mice, light microscopy",5/7
same,serum low density lipoprotein (LDL),Atp7b−/− mice [5]; p<0.001,significantly increased; also recorded: more than doubled
same,serum total cholesterol,Atp7b−/− mice [5]; p<0.001,significantly increased; also recorded: more than doubled
same,serum high density lipoprotein (HDL),Atp7b−/− mice [5]; p<0.005,significantly increased; also recorded: more than doubled
same,hepatic triglycerides,Atp7b−/− mice [6]; drug treated HET mice vs untreated HET,statistically significant increase
same,hepatic triglycerides,Atp7b−/− mice [6]; drug treated KO mice vs untreated KO,statistically significant increase
same,hepatic copper levels,Atp7b−/− mice [7],did not prevent copper accumulation
same,changes in hepatic oxysterol levels,Atp7b−/− mice [8],did not reverse
same,SREBP1 mRNA,[9]; ATP7b+/− mice,increased
same,SREBP1 mRNA,[9]; ATP7b−/− mice,no change
same,FASN mRNA expression,[9]; Atp7b+/− mice,significantly increased
same,FASN mRNA expression,[9]; Atp7b−/− mice,significantly increased
same,ABC1 mRNA levels,[9]; both KO and HET mice,did not change
same,CYP7A1 mRNA levels,[9]; both KO and HET mice,did not change
same,HMGCS1 mRNA levels,[9]; both KO and HET mice,did not change
same,NR1H2 mRNA levels,[9]; both KO and HET mice,did not change
same,NR1H3 mRNA levels,[9]; both KO and HET mice,did not change
same,NR1H4 mRNA levels,[9]; both KO and HET mice,did not change
